{
  "source": "patent US10725042B2",
  "about": "“Methods of diagnosing and treating cancer” (Case Western Reserve University, priority 2012, dated 2020)",
  "key": {"[1]": {"system": "UNG expression in H460 cells", "experiment": "UNG protein and transcript expression after acute pemetrexed exposure, H460", "type": "cell-based, human", "conditions": "acute pemetrexed exposure 0-200 nM", "experimental": "Protein extracts (25 μg) were resolved by SDS-PAGE and transferred to PVDF membrane (Millipore). Non-specific binding sites were blocked in 5% milk in PBST (1×PBS+0.1% Tween-20). Incubation with primary antibody at 4° C. in 5% BSA/PBS was followed by incubation with HRP-conjugated secondary antibody in 2.5% milk in PBST. Proteins were visualized with ECL reagent (Amersham Corp). Chromatinbound proteins were extracted from formaldehyde (1%) cross-linked cells using Pierce Chromatin Prep Module (Thermo Pierce). Antibody sources: UNG-23936 (39 kDa band, nuclear UNG) and PCNA (Abcam); Tubulin (Calbiochem); γH2AX and Histone-H3 (Millipore); Cleaved PARP (Cell Signaling); and p-chk1, chk1, cdc2, and p-cdc2 (Santa Cruz).\nLung cancer cDNA microarray was purchased from Origene. For cell lines, total RNA was extracted from cells using RNAqueous-4PCR kit (Ambion, Austin, Tex.). Random hexamers (Invitrogen) were used to PCR amplify cDNA from 1 μg of RNA extract. TaqMAN MGB probes (FAMTM dye labeled, Applied Biosystems) for nuclear UNG (UNG2), SMUG1, MBD4, TDG, TYMS and βPol amplified cDNA using 40 cycles of PCR in an ABI 7500 Fast Real-Time PCR System (Applied Biosystems, Foster City, Calif.). Target quantification was achieved after normalization to β-actin amplification as an endogenous control and is presented as relative quantification (RQ) values or log-mean RQ values."}, "A549 parental cells": {"system": "A549 parental cells", "experiment": "Colony survival assay, A549 parental cells (Example 2)", "type": "cell-based", "conditions": "Homo sapiens, read-out: pemetrexed IC50", "experimental": "(§1) For cells in suspension, colony survival was determined by crystal violet staining of colonies formed after 10-day exposure of 5×10^3 cells to pemetrexed in soft agar. For adherent cells, colony survival was determined by methylene blue staining of colonies formed after 10-day exposure of 100 cells to pemetrexed in 6-well culture dishes. Only colonies containing ≥50 cells were counted. Data points represent percent of colonies relative to untreated control averaged over 3 experiments."}, "DLD1 UDG+/+ cells": {"system": "DLD1 UDG+/+ cells", "experiment": "Colony survival (clonogenic) assay, UDG+/+ cells", "type": "cell-based", "conditions": "Homo sapiens, DLD-1, interpolated from dose-response survival curves, read-out: IC50 value for pemetrexed"}, "DLD1/UDG+/+ cells": {"system": "DLD1/UDG+/+ cells", "experiment": "Cell cycle analysis, UDG+/+ cells", "type": "cell-based, human", "conditions": "pemetrexed 25 nM", "experimental": "For cell cycle analysis, 10^6 cells (DLD1/UDG^+/+ and DLD1/UDG^−/−) were plated in 100-mm tissue culture dishes and exposed to pemetrexed (25 nM). After 6, 24 and 72 h of culture, cells were fixed with 80% methanol and washed with ice-cold 1% BSA/PBS. DNA was stained with 20 μg/mL propidium iodide (Sigma-Aldrich) and 2.5 μg/mL of DNase-free RNase A (Roche). The DNA fluorescence of propidium iodide-stained cells was measured with an Elite ESP flow cytometer/cell sorter (Coulter, Miami, Fla.)."}, "H1975 67 shUNG cells": {"system": "H1975 67 shUNG cells", "experiment": "Colony survival assay, H1975 67 shUNG cells", "type": "cell-based", "conditions": "Homo sapiens, NCI-H1975, read-out: pemetrexed IC50", "experimental": "as §1\n(§2) UNG directed shRNA and siRNA plasmids were purchased from Origene. Transfection was carried out according to manufacturer specifications. Stably transfected clones (shRNA) were selected with puromycin with subsequent expansion of a well-isolated colony of cells."}, "[2]": {"system": "AP sites in DNA of UDG−/− cells", "experiment": "AP site assay (ARP), UDG−/− cells", "type": "cell-based, human", "conditions": "pemetrexed 0-400 nM, 24 hrs", "experimental": "The number of AP sites was measured using ARP (aldehyde reactive probe) reagent. The assay was performed as previously described. Briefly, cells (2×10^6) were collected after drug treatment and DNA was extracted. DNA (10 μg) was incubated with 15 μl of 1 mM ARP (Dojindo Laboratories, Kumamoto, Japan), and then precipitated and washed with ice-cold ethanol. The ARP-labeled DNA was then heat-denatured at 100° C. for 5 min, quickly chilled on ice and mixed with an equal volume of 2 M ammonium acetate. The DNA was then immobilized on a BA-S 85 nitrocellulose membrane (Schleicher and Schuell, Dassel, Germany) using a minifold II vacuum filter device (Schleicher and Schuell, Dassel, Germany). The membrane was incubated with 0.25% BSA-PBS containing streptavidin-conjugated horseradish peroxidase (BioGenex, SanRamon, Calif.) at room temperature for 40 min with gentle shaking. ARP-labeled AP sites were visualized by chemiluminescence (Amersham Corp, Piscataway, N.J.) followed by quantitative densitometry using NIH Image J software."}, "H1975 66 shUNG cells": {"system": "H1975 66 shUNG cells", "experiment": "Colony survival assay, H1975 66 shUNG cells", "type": "cell-based, human", "experimental": "as §1, §2"}, "H1975 wild type cells": {"system": "H1975 wild type cells", "experiment": "PCNA dissociation by bi-parametric flow cytometry, H1975 wild type cells", "type": "cell-based, human", "conditions": "treated samples", "experimental": "Propidium iodine (PI) staining of methanol fixed cells was for cell cycle determinations. Where indicated, FITC labeled PCNA antibody (PCNA-FITC, Abcam) was added for PCNA detection. Uni-parameter (PI-only) and dual-parameter (PI+PCNA-FITC) analysis was performed on a Coulter flow cytometer (EPICS-XL-MCL). Cell cycle histograms (PI) and PCNA dot plots (PCNA-FITC) were de-convoluted from ≥20,000 events using FlowJo software.\nProlonged S-phase arrest is known to result in DNA DSB formation due to the collapse of stalled replication forks. We evaluated the stability of the DNA replication fork in pemetrexed treated lung cancer cells with native and reduced levels of UNG protein. Nucleotide incorporation experiments using CldU and IdU indicate decreased postpemetrexed treatment nucleotide incorporation (data not shown). […] Using bi-parametric flow cytometry we measured the dissociation of the replication fork processivity factor, PCNA at the single cell level in H1975 cells expressing UNG directed shRNA. Similar assays have been utilized to detect replication fork disassembly following etoposide and hydroxyurea exposure. PCNA dissociation was determined by the percentage of cells in S phase having low PCNA (red box, FIG. 11d). […] As a complimentary experiment, we examined the expression of chromatin-bound PCNA after pemetrexed treatment by western blot of chromatin cellular extracts."}, "H460 cells": {"system": "H460 cells", "experiment": "Clonogenic survival assay, H460 cells", "type": "cell-based", "conditions": "Homo sapiens, NCI-H460, read-out: IC50 values for pemetrexed", "experimental": "(§3) Tumor cells (500-2000/dish) were plated and treated with pemetrexed (0-400 nM), 5-fluorouracil (0-20 μM), temozolomide (0-1500 μM), or cisplatin (0-40 μM). After 7 days, surviving colonies were stained with methylene blue for 30 min at room temperature and the colonies containing more than 50 cells were counted to generate survival curves."}, "A549 cells": {"system": "A549 cells", "experiment": "Clonogenic survival assay, A549 cells (Example 1)", "type": "cell-based", "conditions": "Homo sapiens, read-out: IC50 values for pemetrexed", "experimental": "as §3"}, "H1975 cells": {"system": "H1975 cells", "experiment": "Colony survival assay, H1975 parental cells", "type": "cell-based", "conditions": "Homo sapiens, NCI-H1975, read-out: pemetrexed IC50", "experimental": "as §1"}},
  "note": "pIC50: −log10 of the molar value.",
  "data": [
    {"smiles": "Nc1nc2[nH]cc(CCc3ccc(C(=O)N[C@@H](CCC(=O)O)C(=O)O)cc3)c2c(=O)[nH]1", "note": "[pemetrexed]", "values": [
      {"measurement": "UNG protein and transcript expression", "setting": "[1]", "value": "time- and dosedependent induction"},
      {"measurement": "pIC50", "setting": "A549 parental cells", "value": 6.38},
      {"measurement": "pIC50", "setting": "DLD1 UDG+/+ cells", "value": 6.68},
      {"measurement": "cells transiently arrested in S-phase", "setting": "DLD1/UDG+/+ cells; 24 hr (untreated 17%)", "value": 21, "unit": "%"},
      {"measurement": "cells in the subG1 compartment", "setting": "DLD1/UDG+/+ cells; 72 hr", "value": 6, "unit": "%"},
      {"measurement": "pIC50", "setting": "H1975 67 shUNG cells", "value": 6.84},
      {"measurement": "AP sites in DNA", "setting": "[2]", "value": "lack of detectable AP sites"},
      {"measurement": "sensitivity of shRNA targeted H1975 clones compared to parental cells", "setting": "H1975 66 shUNG cells; H1975 shUNG clones vs parental", "value": "> 5", "unit": "fold"},
      {"measurement": "pIC50", "setting": "H1975 66 shUNG cells; Homo sapiens, NCI-H1975, H1975 66 shUNG, colony survival, read-out: pemetrexed IC50", "value": 6.88},
      {"measurement": "cells in S phase having low PCNA", "setting": "H1975 wild type cells", "value": "less than 1%"},
      {"measurement": "pIC50", "setting": "H460 cells", "value": 6.96},
      {"measurement": "pIC50", "setting": "A549 cells", "value": 5.92},
      {"measurement": "pIC50", "setting": "H1975 cells", "value": 6.11}
    ]}
  ]
}
